US20120130146A1, “CONTINUOUS ADMINISTRATION OF CILENGITIDE IN CANCER TREATMENTS” (Merck Patent GmbH, priority 2009, published 2012)
Several values for one entry are separate records, joined by “and”; a condition that tells them apart may be missing. Equal entries are not always repeated.

Legend:
[1] = system: U251 human glioblastoma cells; assay: Rat orthotopic glioblastoma model radiotherapy, Cilengitide scheduling experiments; format: in vivo; settings: t-4 and t-8 h groups
Protocol: NIH mu nude rats are anaesthetized, restrained, and injected intracerebrally 1 mm retro orbitally, 3 mm to the right of the bregma and at a depth of 2.5 mm with 5×10E5 U251 human glioblastoma cells suspended in 10 ul of culture medium, using a #2701 Hamilton syringe fitted with a 26 gauge needle, essentially as previously described (Engebraaten et al., 1999). After 14 days, cilengitide (4 mg/kg) is given as an intraperitoneal bolus in PBS, at various time (8 h, 4 h, 2 h, 1 h) prior to a single treatment with single, collimated, dorsal-ventral beam of 6 MV x-rays, so that 95-100% of the central axis dose of 25 Gy hit the tumor volume (Kim et al., 1999). Each of the 7 subsequent days the animals also received an identical i.p. bolus of cilengitide. The animals are maintained under ad libitum food and drink until they become moribund, or are sampled for tissue analysis (in the t-4 and t-8 h groups, where the animals are healthy past 230 days post tumor injection). A Kaplan-Meier survival curve is calculated and plotted (FIG. 1) from the raw data (Table 1). All animals in the RT monotherapy group died by 120 d.

[2] = Continuous infusion study pharmacokinetics (plasma); format: in vivo, human; settings: for EMD 121974 Concentrations / CL / V / ke / Css: individual subjects; for CL: CL=Rate/Css; for V, Mean / ke, Mean / V: t1/2 = 4 hours; for V: V=CL/ke; for ke: for t1/2 = 4 hours; for Css: mean of 168 h to 506 h values per patient
Protocol: Patients with solid tumors received a continuous infusion of 1 mg/h, 2 mg/h, 4 mg/h, 8 mg/h or 12 mg/h. with a weekly change of infusion bag.
Blood samples were taken on Day 1 (first dose) at pre-dose and 2 h after start of infusion and then weekly just before change of infusion bag and 2 hours thereafter for the first 4 weeks.
The following pharmacokinetic parameters were derived at Merck KGaA. Darmstadt, Germany, by mathematical methods using Kinetica Version 4.1.1.
CL the total body clearance of EMD 121974 from plasma Css plasma concentration at steady state ke elimination rate constant Rate infusion rate t1/2, half life V Volume of distribution
Css, the plasma concentration at steady state, has been estimated by the arithmetic mean of all concentration values from time point 168 h to 506 h per patient.
From Css and t1/2 the PK parameters CL, ke and V were calculated as follows: […]

[3] = Rate 1 mg/h, listed as EMD 121974
[4] = Rate 2 mg/h, listed as EMD 121974
[5] = Rate 4 mg/h, listed as EMD 121974
[6] = Rate 8 mg/h, listed as EMD 121974

## CC(C)[C@H]1C(=O)N[C@@H](CCCN=C(N)N)C(=O)NCC(=O)N[C@@H](CC(=O)O)C(=O)N[C@H](Cc2ccccc2)C(=O)N1C [Cilengitide, cyclo-(Arg-Gly-Asp-DPhe-NMeVal)]
[1]
  animals healthy, days post tumor injection: > 230 days
[2]; 12 mg/h dose level and below
  Mean values for half-life, clearance, and volume of distribution across dose levels: comparable across dose levels
[2]; Rate 1 mg/h, 0 h (pre-dose)
  EMD 121974 Concentrations: Undetectable
[2]; Rate 1 mg/h, 2 h, listed as EMD 121974
  EMD 121974 Concentrations: 42.90 ng/mL and Undetectable
[2]; Rate 1 mg/h, 168 h, listed as EMD 121974
  EMD 121974 Concentrations: 240.00 ng/mL
[2]; Rate 1 mg/h, 170 h, listed as EMD 121974
  EMD 121974 Concentrations: 156.00 ng/mL and 10.30 ng/mL
[2]; Rate 1 mg/h, 336 h, listed as EMD 121974
  EMD 121974 Concentrations: 324.00 ng/mL and 172.00 ng/mL
[2]; Rate 1 mg/h, 338 h, listed as EMD 121974
  EMD 121974 Concentrations: 321.00 ng/mL and 153.00 ng/mL
[2]; [3]
  CL: 3.84 L/h and 10.17 L/h and 10.93 L/h
  V: 22.2 L and 58.7 L and 63.1 L
  Css: 260.3 ng/mL and 98.4 ng/mL and 91.5 ng/mL
[2]; Rate 1 mg/h
  V, Mean: 48.0 L
  ke, Mean: 0.173 h⁻¹
  ke: 0.173 h⁻¹
[2]; Rate 2 mg/h, 0 h (pre-dose)
  EMD 121974 Concentrations: Undetectable
[2]; Rate 2 mg/h, 2 h, listed as EMD 121974
  EMD 121974 Concentrations: 162.00 ng/mL and Undetectable
[2]; Rate 2 mg/h, 168 h, listed as EMD 121974
  EMD 121974 Concentrations: 189.00 ng/mL and 498.00 ng/mL
[2]; Rate 2 mg/h, 170 h
  EMD 121974 Concentrations: 316.00 ng/mL
[2]; Rate 2 mg/h, 170 h, listed as EMD 121974
  EMD 121974 Concentrations: 244.00 ng/mL
[2]; Rate 2 mg/h, 336 h, listed as EMD 121974
  EMD 121974 Concentrations: 467.00 ng/mL and 523.00 ng/mL
[2]; Rate 2 mg/h, 338 h, listed as EMD 121974
  EMD 121974 Concentrations: 327.00 ng/mL and 392.00 ng/mL
[2]; Rate 2 mg/h, 504 h, listed as EMD 121974
  EMD 121974 Concentrations: 268.00 ng/mL and 485.00 ng/mL
[2]; Rate 2 mg/h, 506 h, listed as EMD 121974
  EMD 121974 Concentrations: 247.00 ng/mL and 427.00 ng/mL
[2]; [4]
  CL: 4.54 L/h
  V: 39.8 L and 26.2 L
  Css: 290.3 ng/mL and 440.2 ng/mL
[2]; Rate 2 mg/h
  V, Mean: 33.0 L
  ke, Mean: 0.173 h⁻¹
  ke: 0.173 h⁻¹
[2]; Rate 4 mg/h, 0 h (pre-dose)
  EMD 121974 Concentrations: Undetectable
[2]; Rate 4 mg/h, 2 h, listed as EMD 121974
  EMD 121974 Concentrations: 228.00 ng/mL and 303.00 ng/mL and 454.00 ng/mL
[2]; Rate 4 mg/h, 168 h, listed as EMD 121974
  EMD 121974 Concentrations: 467.00 ng/mL and 517.00 ng/mL and 894.00 ng/mL
[2]; Rate 4 mg/h, 170 h, listed as EMD 121974
  EMD 121974 Concentrations: 408.00 ng/mL and 372.00 ng/mL and 843.00 ng/mL and 439.00 ng/mL
[2]; Rate 4 mg/h, 336 h, listed as EMD 121974
  EMD 121974 Concentrations: 606.00 ng/mL and 847.00 ng/mL
[2]; Rate 4 mg/h, 338 h, listed as EMD 121974
  EMD 121974 Concentrations: 283.00 ng/mL and 644.00 ng/mL and 711.00 ng/mL and 597.00 ng/mL
[2]; Rate 4 mg/h, 504 h, listed as EMD 121974
  EMD 121974 Concentrations: 1170.00 ng/mL and 524.00 ng/mL and 482.00 ng/mL and 485.00 ng/mL
[2]; Rate 4 mg/h, 506 h, listed as EMD 121974
  EMD 121974 Concentrations: 776.00 ng/mL and 649.00 ng/mL and 618.00 ng/mL
[2]; [5]
  CL: 7.51 L/h and 5.96 L/h and 6.19 L/h
  V: 37.2 L and 43.3 L and 34.4 L and 35.7 L
  Css: 620.8 ng/mL and 532.6 ng/mL and 671.3 ng/mL and 646.7 ng/mL
[2]; Rate 4 mg/h
  V, Mean: 37.7 L
  ke, Mean: 0.173 h⁻¹
  ke: 0.173 h⁻¹
[2]; Rate 8 mg/h, 0 h (pre-dose)
  EMD 121974 Concentrations: Undetectable
[2]; Rate 8 mg/h, 2 h, listed as EMD 121974
  EMD 121974 Concentrations: 603.00 ng/mL and 445.00 ng/mL and 462.00 ng/mL
[2]; Rate 8 mg/h, 168 h, listed as EMD 121974
  EMD 121974 Concentrations: 1310.00 ng/mL and 881.00 ng/mL and 2190.00 ng/mL
[2]; Rate 8 mg/h, 170 h, listed as EMD 121974
  EMD 121974 Concentrations: 862.00 ng/mL and 958.00 ng/mL and 1820.00 ng/mL
[2]; Rate 8 mg/h, 336 h
  EMD 121974 Concentrations: 525.00 ng/mL
[2]; Rate 8 mg/h, 338 h, listed as EMD 121974
  EMD 121974 Concentrations: 424.00 ng/mL and 1520.00 ng/mL
[2]; Rate 8 mg/h, 504 h, listed as EMD 121974
  EMD 121974 Concentrations: 1610.00 ng/mL and 1440.00 ng/mL and 1830.00 ng/mL
[2]; Rate 8 mg/h, 506 h, listed as EMD 121974
  EMD 121974 Concentrations: 1590.00 ng/mL and 771.00 ng/mL and 1500.00 ng/mL
[2]; [6]
  CL: 5.96 L/h and 9.60 L/h and 4.51 L/h
  V: 34.4 L and 55.4 L and 26.1 L
  Css: 1343.0 ng/mL and 833.2 ng/mL and 1772.0 ng/mL
[2]; Rate 8 mg/h
  V, Mean: 38.6 L
  ke, Mean: 0.173 h⁻¹
  ke: 0.173 h⁻¹
[2]; Rate 12 mg/h, 0 h (pre-dose)
  EMD 121974 Concentrations: Undetectable
[2]; Rate 12 mg/h, 2 h, listed as EMD 121974
  EMD 121974 Concentrations: 722.00 ng/mL and 303.00 ng/mL and 472.00 ng/mL
[2]; Rate 12 mg/h, 168 h, listed as EMD 121974
  EMD 121974 Concentrations: 777.00 ng/mL and 2550.00 ng/mL and 1980.00 ng/mL
